Data as given in paper PMC11275795 (bioRxiv, 2024).

Molecular target: FIGNL1∆N (Homo sapiens, UniProt Q6PIW4)
Conditions: activity enhanced by RAD51 or its N-terminal peptide

Sequence of FIGNL1∆N (Q6PIW4 287-674): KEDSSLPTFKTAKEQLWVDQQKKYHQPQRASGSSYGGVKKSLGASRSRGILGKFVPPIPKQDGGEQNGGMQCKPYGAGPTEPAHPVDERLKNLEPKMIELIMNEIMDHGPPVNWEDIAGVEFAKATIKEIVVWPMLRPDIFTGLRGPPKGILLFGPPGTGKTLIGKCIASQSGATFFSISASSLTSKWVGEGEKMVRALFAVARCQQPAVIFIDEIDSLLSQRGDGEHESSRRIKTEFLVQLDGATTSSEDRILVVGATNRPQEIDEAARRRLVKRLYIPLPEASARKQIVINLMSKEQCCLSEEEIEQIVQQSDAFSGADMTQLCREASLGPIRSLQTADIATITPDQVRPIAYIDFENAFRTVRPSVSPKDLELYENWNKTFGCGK

Nc1ncnc2c1ncn2[C@@H]1O[C@H](COP(=O)(O)OP(=O)(O)OP(=O)(O)O)[C@@H](O)[C@H]1O [ATP]
ATPase assay: The ATPase activity of FIGNL1∆N is enhanced in the presence of RAD51
